Results from US20070010454A1, “Method for treating tumor cells resulting in minimal liver toxicity” (priority 2005, published 2007).
Each block holds one molecule with its values, some of them ahead of it.

What was measured:
[1] = test system: tyrosinase; experiment: UV-VIS spectroscopy of tyrosinase mediated metabolism of alkoxyphenols; assay type: biochemical; conditions: alkoxyphenol 100 µM, tyrosinase 20 U/mL; compared with the other alkoxyphenols
Procedure: UV-VIS spectroscopy of tyrosinase mediated metabolism of alkoxyphenols The spectra of a solution containing alkoxyphenol (100 µM) and tyrosinase (20 U/mL) were recorded in the absence and presence of GSH (200 µM) using a GBC UV-Visible spectral spectrophotometer (GC Scientific, Australia). The spectra of the mixture were obtained when GSH was added to the solution either before or after the addition of tyrosinase. The control spectrum was that of the respective alkoxyphenol solution (100 µM) in phosphate buffer [0.1 M (pH 7.4) containing DETAPAC (1 mM)].

[2] = test system: tyrosinase; experiment: Tyrosinase mediated GSH depletion assay; assay type: biochemical; conditions: for GSH depleted in tyrosinase/O2 metabolizing system, average equivalent: average over the four compounds named; for GSH depleted in tyrosinase/O2 metabolizing system (in words) / GSH depleted in tyrosinase/O2 metabolizing system: alkoxyphenol 100 µM, GSH 200 µM
Procedure: Tyrosinase (10 µL; 2500 U/mL) was added to a mixture of alkoxyphenol (100 µM) and GSH (200 µM) in a final volume of 1 mL phosphate buffer (0.1 M, pH 7.4, DETAPAC 1 mM). The mixture was pre-incubated for 30, 90, and 180 min at 37° C. A 250 µL aliquot was added to trichloroacetic acid (25 µL; 30% w/v), vortexed and left at room temperature for 5 min. A 100 µL aliquot of the supernatant was then added to a mixture of Ellman's reagent 5,5′-dithiobis-(2-nitrobenzoic acid) DTNB (25 µL; 2 mg/mL) and Tris/HCl buffer (875 µL; 0.1 M, pH 8.94), and then vortexed. […] The standard curve for GSH measurement gave a regression coefficient of greater than 0.99 over the range of 5-200 µM GSH concentrations (data not shown).

[3] = test system: B16-F0 melanoma cells; experiment: MTT cytotoxicity assay in B16-F0 melanoma cell line; assay type: cell-based, mouse
Procedure: The mouse B16-F0 cell line was obtained from American Type Culture Collection, USA. A frozen B16-F0 cell vial was washed twice with DMEM media before culturing in 8 mL DMEM supplemented with fetal calf serum (FCS) (10%) and streptomycin/penicillin (100 U/mL) in a T-25 flask (17). All the cell culture processes were carried out in a type II vertical laminar air flow chamber. The B16-F0 cultures were kept at 37° C. under a 5% CO2 atmosphere in a TS Autoflow CO2 Water-Jacketed Incubator (NUAIRE, USA). The culture medium was changed when acidification was indicated by the pH indicator and when needed. To detach the cells from the flask, the media was first removed from the flask. The remaining media was then washed out using sterile phosphate buffered saline (PBS) (2-3 mL). Subsequently, Versene (2-5 mL) was added to the flask and the sample was incubated for 2-3 min in the incubator to provide time for cells to detach. The detached cells were rinsed with ˜10 mL of pre-warmed sterile PBS to dilute Versene. The mixture was transferred into a 50 mL tube. The flask was additionally rinsed with sterile PBS and the content was added to the rest of the cells collected. The cells were then spun down at 800 RPM (Beckman GPR Centrifuge, USA) for 3-5 min. The PBS-Versene mixture was aspirated off. Pelletted cells were then re-suspended in DMEM media (supplemented by FCS 10% and antibiotics 100 U/mL) followed by splitting the mixture into one T-75 flask containing 30 mL media (25% of the media was supplemented from the previous culture step as conditioning media).
To evaluate cytotoxicity, cells were obtained from exponentially growing 90-95% confluent cultures and seeded at 12,500 cells/well in 96-well plates. The cells were kept in 100 µL fresh DMEM media (supplemented by FCS 10% and antibiotics 100 U/mL) for 24 h to allow cell adhesion and environmental adaptation. Subsequently, the cells were treated with additional 150 µL DMEM (supplemented with FCS 10% and antibiotics 100 U/mL) containing various concentrations of alkoxyphenols for 1-4 days. At 24 h interval, the medium was removed and the wells were washed three times using DMEM media alone before adding 40 µL of 2 mg/mL yellow tetrazolium dye (3-(4,5-dimethylthiazolyl-2)-2,5-diphenyltetrazolium bromide) (MTT) (17). The plates were returned to the incubator for a period of 4 h. […] The plates were stored at room temperature in a dark place for an additional 2 h before reading them at 570 nm using XFluor Plate Reader (Tecan US, Inc, USA). […]
Lethal concentrations (LC) which can cause 10% and 50% of the cell death were calculated from the linear regression equation derived from graphing the viability of the cells at day 2 (on x axis) versus the concentration of the drug (on y axis).

[4] = test system: melanoma; conditions: cited from earlier work
[5] = test system: rat liver microsomal P450; experiment: Microsomal mediated GSH depletion assay (rat liver microsomes/NADPH/O2); assay type: in vitro ADME
Procedure: Adult male Sprague-Dawley rats, 250-300 g, were obtained from Charles River Laboratories, USA, fed ad libitum, were allowed to acclimatize for 1 week on clay chip bedding in a room with a 12 h light photocycle, an environmental temperature of 21-23° C. and 50-60% relative humidity.
The rats were anesthetized by sodium pentobarbital (60 mg/kg) before surgery in order to prepare the animal before liver removal. Hepatic microsomes were prepared by differential centrifugation as described previously (14). Briefly, the liver was removed and weighed in a beaker on ice. The liver was cut into pieces and washed by cold KCl (154 mM): Tris/HCl (50 mM, pH 7.4) buffer solution then suspended into 4 volumes of KCl:Tris/HCl buffer. The tissue was gently homogenized using an electrical homogenizer and subsequently by a handheld glass tissue grinder before centrifuging at 1935 g (Beckman Avanti J-251, Beckman Rotor-JA-25.5) at 4° C. for 15 mm to remove tissue and cell debris. The supernatant was centrifuged at 12,100 g at 4° C. for 15 min to remove subcellular organelles followed by centrifigation at 100,000 g (Beckman Optima LE-80K, Beckman Rotor-45 Ti) at 4° C. for 1 h. The supernatant was discarded and micorsomes were separated and suspended in 5 mL Tris/HCl buffer (100 mM, pH 7.4) containing 1 mM DETAPAC. The mixture was homogenized using a handheld glass tissue grinder after which an additional 15 mL Tris HCl buffer was added and the solution was aliquoted in 750 µL and stored at −70° C. for subsequent use. Microsomal protein content was determined by a modified Lowry method (15).
The amount of GSH conjugates formed were determined colorimetrically using Ellman's reagent 5,5′-dithiobis-(2-nitrobenzoic acid) (DTNB) (13). Incubation mixtures contained in a final volume of 1 mL phosphate buffer (0.1 M, pH 7.4, DETAPAC 1 mM), 2 mg/mL rat liver microsomes, 200 µM GSH, 1 mM NADPH, and 100 µM alkoxyphenols. The mixtures were gently mixed at 37° C. from which 250 µL aliquots were taken at 30, 60, and 90 min time-interval points into Eppendorf tubes containing 25 µL trichloroacetic acid (30% w/v). Following protein precipitation and centrifugation for 5 min, the GSH levels of a 100 µL aliquot of the supernatant was determined by the addition of 0.1 M Tris/HCl buffer, pH 8.94 (875 µL), and 2 mg/mL DTNB (25 µL). The reduced DTNB formed was determined at 412 nm on a GBC spectral spectrophotometer.

[6] = test system: isolated rat hepatocytes; conditions: reactive metabolite of 4-HA formed by liver P450s; cited from earlier work

Structure (SMILES): CC(C)Oc1ccccc1O [2-iPP, 2-iso-propoxyphenol]
fold lower rate of oxidation by tyrosinase/O2 metabolizing system [1]: 20 fold | GSH depleted in tyrosinase/O2 metabolizing system, average equivalent ([2]; 90 min incubation): 0.15 molar per mole | fold less toxic than the toxic value calculated from Eq. 2 (QSTR) ([3]; LC50 day 2, B16-F0): 3.6 fold

Structure (SMILES): COc1ccc(O)cc1 [4-HA, 4-hydroxyanisole, reference compound]
GSH depleted in tyrosinase/O2 metabolizing system ([2]; 30 min incubation): 1.8 molecular equivalent of GSH per mole | fold more toxic than the toxic value calculated from Eq. 2 (QSTR) ([3]; LC50 day 2, B16-F0): 1.7 fold | clinical liver toxicity (in words) ([4]; clinical trials terminated): serious liver damage occurred | clinical effect (in words) ([4]; topical application and intra-arterial infusions into patients' legs): Depigmentation and tumor shrinkage

Structure (SMILES): CCCCOc1ccc(O)cc1 [4-nBP]
GSH depleted in tyrosinase/O2 metabolizing system ([2]; 90 min incubation): 1.8 molecular equivalent of GSH per mole

Structure (SMILES): CCCCCCOc1ccc(O)cc1 [4-nHP, 4-n-hexyloxyphenol]
GSH depleted in tyrosinase/O2 metabolizing system ([2]; 90 min incubation): 1.8 molecular equivalent of GSH per mole | metabolism by liver P450 microsomal preparation (in words) [5]: minimal metabolism | glutathione depletion in microsomal preparations (in words) ([5]; at calculated LC10 and LC50 lethal concentrations for B16-F0): minimally depleting glutathione | toxicity towards B16-F0 cells (in words) ([3]; MTT assay, 1-4 days): greatest toxicity

Structure (SMILES): CCCOc1ccc(O)cc1 [4-nPP]
GSH depleted in tyrosinase/O2 metabolizing system (in words) ([2]; 90 min incubation): mole per mole basis

Structure (SMILES): CC(C)(C)Oc1ccc(O)cc1 [4-tBP, 4-t-butoxyphenol]
fold lower rate of oxidation by tyrosinase/O2 metabolizing system [1]: 20 fold | GSH depleted in tyrosinase/O2 metabolizing system, average equivalent ([2]; 90 min incubation): 0.15 molar per mole | GSH depletion by microsomal P450/NADPH/O2, fold less than 4-HA ([5]; 100 µM concentration): 2.3 fold | glutathione depletion by microsomal P450 system (in words) ([5]; 100 µM concentration): lowest rate of GSH depletion | glutathione depletion by microsomal P450 system (in words) ([5]; 100 µM concentration, listed as 4-t-butoxyphenol): lowest amount of glutathione depletion | GSH depleted by rat liver microsomes/NADPH/O2 ([5]; 90 min incubation, alkoxyphenol 100 µM, 2 mg/mL microsomes, 200 µM GSH): 0.5 equivalents of GSH per mole | fold less toxic than the toxic value calculated from Eq. 2 (QSTR) ([3]; LC50 day 2, B16-F0): 3.6 fold

Structure (SMILES): O=C1C=CC(=O)C=C1 [p-quinone]
toxicity to isolated rat hepatocytes (in words) [6]: highly toxic

Second part, the molecule after the results:

GSH depleted in tyrosinase/O2 metabolizing system (in words) ([2]; 90 min incubation): mole per mole basis
Structure (SMILES): CCOc1ccc(O)cc1 [4-EP]

GSH depleted in tyrosinase/O2 metabolizing system ([2]; 90 min incubation): 1.8 molecular equivalent of GSH per mole
Structure (SMILES): CC(C)COc1ccc(O)cc1 [4-iBP]

GSH depleted in tyrosinase/O2 metabolizing system, average equivalent ([2]; 90 min incubation): 0.15 molar per mole
Structure (SMILES): CC(C)Oc1ccc(O)cc1 [4-iPP]

GSH depleted in tyrosinase/O2 metabolizing system, average equivalent ([2]; 90 min incubation): 0.15 molar per mole
Structure (SMILES): CCC(C)Oc1ccc(O)cc1 (stereo not shown) [4-sBP]
